# Experimental data taken from PubChem BioAssay (NCI).
#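 Here, GI50 denotes the concentration required for 50% inhibition of growth. At the TGI there is no net growth.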
# Key:
# Assay in all cases: NCI tumour cell line growth inhibition, 384-well format
# 786-0 renal = tested on: 786-0 renal
# A498 renal = tested on: A498 renal
# A549 NSCLC = tested on: A549 NSCLC
# ACHN renal = tested on: ACHN renal
# BT-549 breast = tested on: BT-549 breast
# CAKI-1 renal = tested on: CAKI-1 renal
# COLO 205 colon = tested on: COLO 205 colon
# DU-145 prostate = tested on: DU-145 prostate
# EKVX NSCLC = tested on: EKVX NSCLC
# HCT-116 colon = tested on: HCT-116 colon
# HCT-15 colon = tested on: HCT-15 colon
# HL-60(TB) leukemia = tested on: HL-60(TB) leukemia
# HOP-62 NSCLC = tested on: HOP-62 NSCLC
# HOP-92 NSCLC = tested on: HOP-92 NSCLC
# HS 578T breast = tested on: HS 578T breast
# HT29 colon = tested on: HT29 colon
# IGROV1 ovarian = tested on: IGROV1 ovarian
# K-562 leukemia = tested on: K-562 leukemia
# KM12 colon = tested on: KM12 colon
# M14 melanoma = tested on: M14 melanoma
# MALME-3M melanoma = tested on: MALME-3M melanoma
# MCF7 breast = tested on: MCF7 breast
# MDA-MB-231 breast = tested on: MDA-MB-231 breast
# MDA-MB-435 melanoma = tested on: MDA-MB-435 melanoma
# MDA-MB-468 breast = tested on: MDA-MB-468 breast
# MOLT-4 leukemia = tested on: MOLT-4 leukemia
# NCI-H226 lung = tested on: NCI-H226 lung
# NCI-H23 lung = tested on: NCI-H23 lung
# NCI-H322M lung = tested on: NCI-H322M lung
# NCI-H460 NSCLC = tested on: NCI-H460 NSCLC
# NCI-H522 lung = tested on: NCI-H522 lung
# OVCAR-3 ovarian = tested on: OVCAR-3 ovarian
# OVCAR-4 ovarian = tested on: OVCAR-4 ovarian
# OVCAR-5 ovarian = tested on: OVCAR-5 ovarian
# OVCAR-8 ovarian = tested on: OVCAR-8 ovarian
# PC-3 prostate = tested on: PC-3 prostate
# RXF 393 renal = tested on: RXF 393 renal
# SF-268 CNS = tested on: SF-268 CNS
# SF-295 CNS = tested on: SF-295 CNS
# SF-539 CNS = tested on: SF-539 CNS
# SK-MEL-2 melanoma = tested on: SK-MEL-2 melanoma
# SK-MEL-28 melanoma = tested on: SK-MEL-28 melanoma
# SK-MEL-5 melanoma = tested on: SK-MEL-5 melanoma
# SK-OV-3 ovarian = tested on: SK-OV-3 ovarian
# SN12C renal = tested on: SN12C renal
# SNB-19 CNS = tested on: SNB-19 CNS
# SNB-75 CNS = tested on: SNB-75 CNS
# SR leukemia = tested on: SR leukemia
# SW-620 colon = tested on: SW-620 colon
# T-47D breast = tested on: T-47D breast
# TK-10 renal = tested on: TK-10 renal
# U251 glioblastoma = tested on: U251 glioblastoma
# UACC-257 melanoma = tested on: UACC-257 melanoma
# UACC-62 melanoma = tested on: UACC-62 melanoma
# UO-31 renal = tested on: UO-31 renal
smiles,measurement,setting,value
Cc1cc(Oc2ccc3nc(COc4ccc(CC5SC(=O)NC5=O)cc4)n(C)c3c2)cc(C)c1N (stereo not given),GI50,786-0 renal,30.2 µM
same,TGI,786-0 renal,> 100 µM
same,GI50,A498 renal,25.7 µM
same,TGI,A498 renal,62.9 µM
same,GI50,A549 NSCLC,24.8 µM
same,TGI,A549 NSCLC,58.2 µM
same,GI50,ACHN renal,31.3 µM
same,TGI,ACHN renal,98.7 µM
same,GI50,BT-549 breast,16.4 µM
same,TGI,BT-549 breast,31.2 µM
same,GI50,CAKI-1 renal,29.5 µM
same,TGI,CAKI-1 renal,74.9 µM
same,GI50,COLO 205 colon,33.7 µM
same,TGI,COLO 205 colon,82.7 µM
same,GI50,DU-145 prostate,19 µM
same,TGI,DU-145 prostate,36 µM
same,GI50,EKVX NSCLC,22.6 µM
same,TGI,EKVX NSCLC,44.2 µM
same,GI50,HCT-116 colon,15.4 µM
same,TGI,HCT-116 colon,30.6 µM
same,GI50,HCT-15 colon,21.7 µM
same,TGI,HCT-15 colon,43 µM
same,GI50,HL-60(TB) leukemia,14 µM
same,TGI,HL-60(TB) leukemia,27.2 µM
same,GI50,HOP-62 NSCLC,14.6 µM
same,TGI,HOP-62 NSCLC,35 µM
same,GI50,HOP-92 NSCLC,23.9 µM
same,TGI,HOP-92 NSCLC,60.6 µM
same,GI50,HS 578T breast,18.6 µM
same,TGI,HS 578T breast,42.6 µM
same,GI50,HT29 colon,27.2 µM
same,TGI,HT29 colon,73.1 µM
same,GI50,IGROV1 ovarian,29.6 µM
same,TGI,IGROV1 ovarian,79.5 µM
same,GI50,K-562 leukemia,18.8 µM
same,TGI,K-562 leukemia,49.1 µM
same,GI50,KM12 colon,17.2 µM
same,TGI,KM12 colon,31.8 µM
same,GI50,M14 melanoma,19.9 µM
same,TGI,M14 melanoma,39.9 µM
same,GI50,MALME-3M melanoma,20.7 µM
same,TGI,MALME-3M melanoma,39.3 µM
same,GI50,MCF7 breast,5.45 µM
same,TGI,MCF7 breast,22 µM
same,GI50,MDA-MB-231 breast,30.4 µM
same,TGI,MDA-MB-231 breast,> 100 µM
same,GI50,MDA-MB-435 melanoma,20 µM
same,TGI,MDA-MB-435 melanoma,43.9 µM
same,GI50,MDA-MB-468 breast,16.7 µM
same,TGI,MDA-MB-468 breast,36.2 µM
same,GI50,MOLT-4 leukemia,14 µM
same,TGI,MOLT-4 leukemia,27.1 µM
same,GI50,NCI-H226 lung,22.6 µM
same,TGI,NCI-H226 lung,46.7 µM
same,GI50,NCI-H23 lung,15.6 µM
same,TGI,NCI-H23 lung,29.5 µM
same,GI50,NCI-H322M lung,32.8 µM
same,TGI,NCI-H322M lung,77.4 µM
same,GI50,NCI-H460 NSCLC,15.9 µM
same,TGI,NCI-H460 NSCLC,31.9 µM
same,GI50,NCI-H522 lung,20.4 µM
same,TGI,NCI-H522 lung,41.4 µM
same,GI50,OVCAR-3 ovarian,19.1 µM
same,TGI,OVCAR-3 ovarian,35.8 µM
same,GI50,OVCAR-4 ovarian,29.4 µM
same,TGI,OVCAR-4 ovarian,75.2 µM
same,GI50,OVCAR-5 ovarian,38.2 µM
same,TGI,OVCAR-5 ovarian,> 100 µM
same,GI50,OVCAR-8 ovarian,22.4 µM
same,TGI,OVCAR-8 ovarian,53.7 µM
same,GI50,PC-3 prostate,17.3 µM
same,TGI,PC-3 prostate,35.4 µM
same,GI50,RXF 393 renal,16.8 µM
same,TGI,RXF 393 renal,48.4 µM
same,GI50,SF-268 CNS,23.9 µM
same,TGI,SF-268 CNS,57.7 µM
same,GI50,SF-295 CNS,26.3 µM
same,TGI,SF-295 CNS,66.4 µM
same,GI50,SF-539 CNS,17.5 µM
same,TGI,SF-539 CNS,33.9 µM
same,GI50,SK-MEL-2 melanoma,20.3 µM
same,TGI,SK-MEL-2 melanoma,35.6 µM
same,GI50,SK-MEL-28 melanoma,23 µM
same,TGI,SK-MEL-28 melanoma,50.7 µM
same,GI50,SK-MEL-5 melanoma,18.8 µM
same,TGI,SK-MEL-5 melanoma,32.9 µM
same,GI50,SK-OV-3 ovarian,25.8 µM
same,TGI,SK-OV-3 ovarian,66.4 µM
same,GI50,SN12C renal,28.7 µM
same,TGI,SN12C renal,> 100 µM
same,GI50,SNB-19 CNS,42 µM
same,TGI,SNB-19 CNS,> 100 µM
same,GI50,SNB-75 CNS,22 µM
same,TGI,SNB-75 CNS,50 µM
same,GI50,SR leukemia,6.93 µM
same,TGI,SR leukemia,19.4 µM
same,GI50,SW-620 colon,25.6 µM
same,TGI,SW-620 colon,68.8 µM
same,GI50,T-47D breast,16.9 µM
same,TGI,T-47D breast,31.1 µM
same,GI50,TK-10 renal,27.4 µM
same,TGI,TK-10 renal,80.5 µM
same,GI50,U251 glioblastoma,21 µM
same,TGI,U251 glioblastoma,45.1 µM
same,GI50,UACC-257 melanoma,24.5 µM
same,TGI,UACC-257 melanoma,48.6 µM
same,GI50,UACC-62 melanoma,17.7 µM
same,TGI,UACC-62 melanoma,31.9 µM
same,GI50,UO-31 renal,24.1 µM
same,TGI,UO-31 renal,56.9 µM
